Tests used:
Fyn kinase = Fyn kinase (Homo sapiens, UniProt P06241); set-up: dose or concentration left out as unconfirmed; details: cited from earlier work
Wild-type mice = assay: Whole-body indirect calorimetry, wild-type mice; format: in vivo, mouse
Description: (§1) Eight- to ten-week-old male C57BL6/J, pp59^fyn null mice and their controls were obtained from The Jackson Laboratory (Bar Harbor, Me.) and housed in a facility equipped with a 12 hr light/dark cycle. Animals were fed ad libitum a standard chow diet (Research Diets, New Brunswick, N. J.) containing 75.9% (Kcal) carbohydrates, 14.7% protein, and 9.4% fat. All studies were approved by and performed in compliance with the guidelines of the Yeshiva University Institutional Animal Care and Use Committee (IACUC).
(§2) Oxygen and carbon dioxide consumption were simultaneously determined by Oxymax open-circuit indirect calorimetry system (eight-cage system) (Columbus Instruments). Animals were allowed to acclimatize for two complete light and dark cycles (48 hr), and SU6656 (2-oxo-3-(4,5,6,7-tetrahydro-1H-indol-2-ylmethylene)-2,3-dihydro-1H-indole-5-sulfonic acid dimethylamide) injections were performed at the beginning of the light cycle the following day. Measurements were subsequently taken 12 hr following the injection. Data were analyzed as the average of 1 hr measurements for each mouse. Instrument settings were as follows: gas flow rate, 0.6 1/min; sample flow rate, 0.5 1/min; settle time, 120 s; measure time, 60 s.
Loss of Fyn kinase protein in the conventional Fyn knockout mice leads to increased lipid utilization and energy expenditure, particularly in the fasting/resting state (Bastie et al., 2007). To examine the effects of acute Fyn inhibition, the in vivo effects of the pharmacological selective Src family kinase inhibitor SU6656 was investigated. Wild-type mice were placed into metabolic chambers and allowed to acclimatize for 48 hr. Intraperitoneal injection of SU6656 or vehicle was performed at the beginning of the light cycle (fasting/resting state), and the respiratory quotient (RQ), oxygen consumption (VO2), energy expenditure (EE), and physical activity were monitored for the following 12 hr. […] Oxygen consumption and energy expenditure were similar in both groups before the injection and were decreased during the light period as the animals were resting with reduced basal metabolism.

[1] = tested on: AMPK α subunit T172 phosphorylation; assay: Western blot of phospho-T172 AMPK in white gastrocnemius; format: in vivo, mouse; details: SU6656 4 mg/kg, 3 hr after injection, vs vehicle
Method: (§3) Animals were injected with vehicle or SU6656 (4 mg/kg) at the beginning of the light cycle. They were anesthetized and sacrificed by cervical dislocation 3 hr after the injection. Tissues were rapidly freeze clamped in liquid nitrogen and stored at […]. Protein preparation and blotting were performed as described below. Tissues were ground in liquid nitrogen and homogenized in a buffer containing 50 mM Tris (pH 7.4), 1% glycerol, and 1% Triton X-100 supplemented with protease inhibitor (Complete Mini, Roche Pharmaceuticals, Nutley, N. J.). Homogenates were centrifuged for 30 min at 14,000 rpm at 4° C., and supernatants were collected. Protein concentration was determined with the BCA™ Protein Assay (Thermo Scientific, Rockford, Ill.).
(§4) Protein samples (40 μg) were separated on 8% or 10% reducing polyacrylamide gels and transferred onto Immobilon-P polyvinylidene difluoride membranes. […] Alternatively, immunoblots were incubated with IRDye800CW goat antimouse (H+L) or IRDye680 goat anti-rabbit (H+L) secondary antibodies, and signal was detected with the Odyssey® Infrared Imaging System (Li-COR Biotechnology, Lincoln, Nebr.).

Fyn knockout mice = assay: Whole-body indirect calorimetry and body mass, Fyn knockout mice; format: in vivo, mouse
Description: as §1, §2
To address this issue, the metabolic effect of SU6656 on wild type versus Fyn knockout mice was investigated. […]

[2] = tested on: red soleus and white gastrocnemius muscles; assay: Fatty acid oxidation in isolated muscles (14C-palmitate to 14CO2); format: in vivo, mouse; details: relative to vehicle treated controls
Method: Animals received a single intraperitoneal injection of SU6656 or vehicle in the morning. Mice were sacrificed by cervical dislocation 3 hr after the injection. Skeletal muscles (red soleus and white gastrocnemius) were rapidly removed and preincubated for 10 min in oxygenated (95% O2, 5% CO2) Earle's solution (Invitrogen, Carlsbad, Calif.) supplemented with 5 mMD-glucose, 250 μM palmitate, and 0.5% BSA plus either 10 μM SU6656 or an equal volume of DMSO. Tissues were incubated for 45 min in the same buffer containing […] palmitate containing 1 μCi/ml [1-^14C] palmitate tracer (Amersham, Piscataway, N. J.) bound to 0.5% BSA. Incubations were carried out under an atmosphere of 95% O2/5% CO2 at 30° C. in glass vials (Kontes, Vineland, N.J.) equipped with a center well filled with 200 μl of 2N NaOH (trapping agent). At the end of the incubation, perchloric acid was added through the cap to a concentration of […], and vials were incubated for 3 hr at 30° C. with moderate shaking. The ^14CO2 produced was determined by scintillation counting of NaOH using the UniScintBD scintillation liquid (National Diagnostics, Atlanta, Ga.).
As mice generally consume 80% of their calories during the dark cycle and have a limited food intake during the light cycle, they undergo a diurnal pattern of weight gain and loss as shown by the decreased body mass at T=12 hr in the vehicle-treated mice. […]

[3] = tested on: LKB1 subcellular localization in C2C12 muscle cell line; assay: GFP-LKB1 subcellular localization in C2C12 myotubes; format: cell-based; set-up: dose or concentration left out as unconfirmed; details: C2C12 myotubes transfected with pEGFP-LKB1
Method: FIGS. 4A-4F. Fyn Kinase Activity Regulates LKB1 Subcellular Distribution. (4A) C2C12 myotubes were transfected with pEGFP-LKB1 and incubated with vehicle or SU6656 ([…]) for 2 hr. Cells were fixed and mounted with proQ diamond with DAPI solution. (4B) Shown is percentage of cells with pEGFPLKB1 signal detected in the cytoplasm. (4C) C2C12 myotubes were cotransfected with pEGFP-LKB1 and pcDNA3-Fyn-KD or pcDNA3-Fyn-CA. Cells were fixed and incubated with the mouse Fyn monoclonal antibody. Immunofluorescence was performed using the Alexa Fluor 594 Anti-mouse IgG. (4D) Percentage of C2C12 cells with pEGFP-LKB1 signal detected in the cytoplasm. Data are representative of n=5 experiments. (4E) Fully differentiated 3T3L1 adipocytes were cotransfected with pcDNA3-LKB1 and pcDNA3-Fyn-KD or pcDNA3-Fyn-CA. […] (4F) Percentage of 3T3L1 cells with LKB1 signal detected in the cytoplasm. […]
The ratio of cytosolic and nuclear LKB1 was quantified using the Image J software (National Institutes of Health). […]
C2C12 myotubes were cotransfected with 50 μg pEGFP-C2-LKB1 or pcDNA3-Flag-LKB1 or pcDNA3-Flag-LKB1 mutants and 200 μg of the indicated pcDNA3-Fyn constructs. […] Cells were imaged using a confocal fluorescence microscope (TCS SP5 confocal; Leica Microsystems). […]

LKB1 = assay: Endogenous LKB1 immunofluorescence in skeletal muscle in vivo; set-up: species or system mouse; details: wild-type mice treated with SU6656
[4] = tested on: ACC S79 (ACC1) and S221 (ACC2) phosphorylation; assay: Western blot of phospho-ACC in white gastrocnemius; format: in vivo, mouse; details: SU6656 4 mg/kg, 3 hr after injection, vs vehicle
Method: as §3, §4

[5] = Total body mass and magnetic resonance imaging (fat and lean mass), wild-type mice; format: in vivo, mouse
Method: Total body mass (g) was recorded before (T=0) and 12 hr (T=12 hr) after the SU6656 injection. To determine fat and lean mass, animals were placed in a clear plastic holder without anesthesia or sedation and inserted into the EchoMRI-3-in-1™ System from Echo Medical Systems (Houston, Tex., USA). Total body fat and lean mass were measured before (T=0) and after (T=12 hr) after the injection.
As mice generally consume 80% of their calories during the dark cycle and have a limited food intake during the light cycle, they undergo a diurnal pattern of weight gain and loss as shown by the decreased body mass at T=12 hr in the vehicle-treated mice. […] To determine whether the lowered RQ in the mice treated with SU6656 was directly due to increased skeletal muscle fatty acid oxidation, red soleus and white gastrocnemius muscles were isolated 3 hr following the vehicle or SU6656 injection and incubated with ^14C-palmitate. The oxidation of ^14C-palmitate to ^14CO2 was increased 25% and 33%, respectively, in the soleus and the gastrocnemius of the SU6656-treated mice relative to vehicle treated controls (FIGS. 3A and 3B). The SU6656-stimulated increase in fatty acid oxidation occurred concomitantly, with an approximate 3-fold increased AMPK α subunit T172 phosphorylation and increased ACC S79 (ACC1) and S221 (ACC2) phosphorylation levels (FIGS. 3C and 3D).

[6] = SU6656 4 mg/kg intraperitoneal, light period, 12 hr following injection

Chain of Fyn kinase (P06241 1-534 isoform P06241-2): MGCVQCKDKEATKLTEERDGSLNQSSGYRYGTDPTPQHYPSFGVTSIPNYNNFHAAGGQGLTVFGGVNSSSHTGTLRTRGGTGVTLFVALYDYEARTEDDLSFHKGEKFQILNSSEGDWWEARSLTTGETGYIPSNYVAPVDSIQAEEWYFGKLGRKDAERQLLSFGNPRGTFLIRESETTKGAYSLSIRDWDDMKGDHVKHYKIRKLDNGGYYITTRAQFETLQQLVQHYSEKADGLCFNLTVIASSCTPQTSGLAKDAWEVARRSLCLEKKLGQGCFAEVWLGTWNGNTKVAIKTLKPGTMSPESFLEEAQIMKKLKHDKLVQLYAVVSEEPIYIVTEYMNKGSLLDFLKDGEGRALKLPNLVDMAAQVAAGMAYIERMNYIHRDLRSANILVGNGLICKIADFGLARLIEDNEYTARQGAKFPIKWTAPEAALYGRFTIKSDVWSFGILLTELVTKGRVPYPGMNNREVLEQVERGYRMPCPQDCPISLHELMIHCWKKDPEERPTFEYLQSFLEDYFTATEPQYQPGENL

CN(C)S(=O)(=O)c1ccc2c(c1)C(=Cc1cc3c([nH]1)CCCC3)C(=O)N2 [SU6656, 2-oxo-3-(4,5,6,7-tetrahydro-1H-indol-2-ylmethylene)-2,3-dihydro-1H-indole-5-sulfonic acid dimethylamide]
Fyn kinase activity (Fyn kinase): sufficient to inactivate | decrease of respiratory quotient (RQ) (Wild-type mice; SU6656 4 mg/kg intraperitoneal at beginning of light cycle, vs vehicle, particularly first 3 hr after injection): more pronounced | energy expenditure (EE) elevation vs vehicle (Wild-type mice; [6]): 14% | oxygen consumption (VO2) elevation vs vehicle (Wild-type mice; [6]): 14% | physical activity (Wild-type mice; SU6656 4 mg/kg, dark or light cycle): without any alteration | respiratory quotient (RQ), wild-type controls of Fyn knockout mice (Wild-type mice; three-month-old wild-type mice, SU6656 vs vehicle, 12 hr following injection): lower RQ | increased AMPK α subunit T172 phosphorylation [1]: ~3 fold | body mass or physical activity in Fyn null mice (Fyn knockout mice; after SU6656 treatment): no alterations | rate of change or RQ level in Fyn knockout mice (Fyn knockout mice; three-month-old Fyn knockout mice, SU6656 vs vehicle): no significant effect | increase in oxidation of 14C-palmitate to 14CO2, soleus ([2]; red soleus isolated 3 hr after injection): 25% | increase in oxidation of 14C-palmitate to 14CO2, gastrocnemius ([2]; white gastrocnemius isolated 3 hr after injection): 33% | cells with redistribution of LKB1 into the cytoplasm [3]: approximately 65% | LKB1 signal in the cytoplasm of muscle cells (LKB1): increased LKB1 signal | ACC S79 (ACC1) and S221 (ACC2) phosphorylation levels [4]: increased | total weight loss greater than vehicle-treated group ([5]; 12 hr after SU6656 injection): 40% | fat mass ([5]; T=12 hr, SU6656-treated vs vehicle-injected control animals): significantly reduced | lean mass ([5]; T=12 hr, vehicle vs SU6656-injected mice): no significant difference
